Test results reported in ChEMBL document CHEMBL1145140, “Inhibitors of inosine monophosphate dehydrogenase: SARs about the N-[3-Methoxy-4-(5-oxazolyl)phenyl moiety” (Bioorg Med Chem Lett, 2003).

biological target: Inosine-5'-monophosphate dehydrogenase 2 (Homo sapiens, UniProt P12268); assay: Inhibition of inosine-5'-monophosphate dehydrogenase 2.; type: single protein; settings: not given

Question: Which IC50 does the source give for `CN(C(=O)CO)c1ccccc1-c1cnc(Nc2ccc(-c3cnco3)c(Br)c2)o1` here?
Answer: Its IC50 is 0.021 µM.

Question: With `Cc1cccc(NC(=O)Nc2ccc(-c3cnco3)c(Cl)c2)c1` as the compound, how does the IC50 read?
Answer: The IC50 was 0.043 µM.

Question: How did the IC50 turn out when `CCOc1cc(Nc2ncc(-c3ccccc3)o2)ccc1-c1cnco1` was run?
Answer: The IC50 was > 10 µM.

Question: Which IC50 does the source give for `COc1cc(Nc2ncc(-c3ccccc3)o2)c(Cl)cc1-c1cnco1` here?
Answer: The IC50 was > 1.6 µM.

Question: For `CNc1nc(Nc2ccc(-c3cocn3)c(OC)c2)nc(-c2ccccc2)n1`, which IC50 is on record?
Answer: Its IC50 is 1.6 µM.

Question: With `COc1cc(Nc2ncc(-c3ccccc3N(C)C(=O)CN3CCOCC3)o2)ccc1-c1cocn1` as the compound, how does the IC50 read?
Answer: The IC50 was 0.091 µM.

Question: With `Oc1cc(Nc2ncc(-c3ccccc3)o2)ccc1-c1cnco1` as the compound, how does the IC50 read?
Answer: Its IC50 is > 1.6 µM.

Question: How did the IC50 turn out when `COc1cc(Nc2ncc(-c3ccccc3N(C)C(=O)CO)o2)ccc1-c1cnco1` was run?
Answer: The IC50 was 0.021 µM.

Question: How did the IC50 turn out when `Cc1cc(Nc2ncc(-c3ccccc3N(C)C(=O)CN3CCOCC3)o2)ccc1-c1cnco1` was run?
Answer: The IC50 was 0.045 µM.

Question: How did the IC50 turn out when `COc1cc(Nc2ncc(-c3ccccc3N(C)C(=O)CO)o2)ccc1-c1cocn1` was run?
Answer: The IC50 was 0.041 µM.

Question: Which IC50 does the source give for `COc1cc(Nc2ncc(-c3ccccc3)o2)c(F)cc1-c1cnco1` here?
Answer: The IC50 was > 5 µM.

Question: How did the IC50 turn out when `Cc1nc(C)c(-c2ccc(Nc3ncc(-c4ccccc4)o3)cc2)o1` was run?
Answer: The IC50 was > 2 µM.

Question: With `Cc1ncoc1-c1ccc(NC(=O)/C=C/c2ccco2)cc1` as the compound, how does the IC50 read?
Answer: The IC50 was > 2 µM.

Question: `CCc1cc(Nc2ncc(-c3ccccc3N(C)C(=O)CO)o2)ccc1-c1cnco1` was tested. Which IC50 did it give?
Answer: Its IC50 is 0.1 µM.

Question: How did the IC50 turn out when `Clc1cc(Nc2ncc(-c3ccccc3)o2)ccc1-c1cocn1` was run?
Answer: Its IC50 is > 5 µM.

Question: How did the IC50 turn out when `CCc1cc(Nc2ncc(-c3ccccc3N(C)C(=O)CN3CCOCC3)o2)ccc1-c1cnco1` was run?
Answer: The IC50 was 0.31 µM.

Question: With `COc1cc(Nc2ncc(-c3ccccc3)o2)ccc1-c1cnc(C)o1` as the compound, how does the IC50 read?
Answer: The IC50 was > 2 µM.

Question: How did the IC50 turn out when `COc1cc(Nc2ncc(-c3ccccc3)o2)ccc1-c1ocnc1C` was run?
Answer: Its IC50 is > 5 µM.

Question: With `Cc1cccc(NC(=O)Nc2ccc(-c3cnco3)cc2)c1` as the compound, how does the IC50 read?
Answer: The IC50 was 0.64 µM.

Question: How did the IC50 turn out when `CNc1nc(Nc2ccc(-c3cnco3)c(Cl)c2)nc(-c2ccccc2)n1` was run?
Answer: Its IC50 is > 0.34 µM.

Question: For `CNc1nc(Nc2ccc(-c3cnco3)cc2)nc(-c2ccccc2)n1`, which IC50 is on record?
Answer: The IC50 was > 5 µM.

Question: `Cc1cc(Nc2ncc(-c3ccccc3N(C)C(=O)CO)o2)ccc1-c1cnco1` was tested. Which IC50 did it give?
Answer: Its IC50 is 0.1 µM.

Question: For `c1ccc(-c2cnc(Nc3ccc(-c4cocn4)cc3)o2)cc1`, which IC50 is on record?
Answer: The IC50 was > 5 µM.

Question: For `COc1cc(Nc2ncc(-c3ccccc3)o2)ccc1-c1ncco1`, which IC50 is on record?
Answer: The IC50 was 0.19 µM.

Question: How did the IC50 turn out when `COc1cc(Nc2ncc(-c3ccccc3)o2)ccc1-n1cncn1` was run?
Answer: Its IC50 is 0.41 µM.

Question: With `Cc1cccc(NC(=O)Nc2ccc(-c3ocnc3C)cc2)c1` as the compound, how does the IC50 read?
Answer: The IC50 was 0.5 µM.

Question: With `COc1cc(Nc2ncc(-c3ccccc3)o2)ccc1-c1cocn1` as the compound, how does the IC50 read?
Answer: The IC50 was > 0.057 µM.

Question: `CN(C(=O)CN1CCOCC1)c1ccccc1-c1cnc(Nc2ccc(-c3cnco3)c(Cl)c2)o1` was tested. Which IC50 did it give?
Answer: Its IC50 is 0.047 µM.

Question: `c1ccc(-c2cnc(Nc3ccc(-c4cnco4)cc3)o2)cc1` was tested. Which IC50 did it give?
Answer: Its IC50 is > 5 µM.

Question: How did the IC50 turn out when `Cc1cc(Nc2ncc(-c3ccccc3)o2)ccc1-c1cocn1` was run?
Answer: The IC50 was > 5 µM.

Question: How did the IC50 turn out when `CNc1nc(Nc2ccc(-c3ocnc3C)cc2)nc(-c2ccccc2)n1` was run?
Answer: Its IC50 is > 5 µM.

Question: How did the IC50 turn out when `Clc1cc(Nc2ncc(-c3ccccc3)o2)ccc1-c1cnco1` was run?
Answer: Its IC50 is 0.088 µM.

Question: How did the IC50 turn out when `CN(C(=O)CO)c1ccccc1-c1cnc(Nc2ccc(-c3cnco3)c(Cl)c2)o1` was run?
Answer: Its IC50 is 0.041 µM.

Question: How did the IC50 turn out when `Cc1ncoc1-c1ccc(NC(=O)C(=O)NC(C)(C)C)cc1` was run?
Answer: The IC50 was > 5 µM.

Question: Which IC50 does the source give for `COc1cc(NC(=NC#N)Nc2ccccc2)ccc1-c1cnco1` here?
Answer: The IC50 was 0.24 µM.

Question: `Cc1ncoc1-c1ccc(Nc2ncc(-c3ccccc3)o2)cc1` was tested. Which IC50 did it give?
Answer: Its IC50 is > 5 µM.

Question: Which IC50 does the source give for `COc1c(-c2cnco2)ccc(Nc2ncc(-c3ccccc3)o2)c1Cl` here?
Answer: Its IC50 is > 5 µM.

Question: How did the IC50 turn out when `CC(C)(C)NC(=O)C(=O)Nc1ccc(-c2cnco2)cc1` was run?
Answer: The IC50 was > 5 µM.

Question: With `COc1cc2nc(-c3ccccc3)cc(O)c2cc1-c1cocn1` as the compound, how does the IC50 read?
Answer: The IC50 was 0.21 µM.

Question: Which IC50 does the source give for `CN(C(=O)CN1CCOCC1)c1ccccc1-c1cnc(Nc2ccc(-c3cnco3)c(Br)c2)o1` here?
Answer: The IC50 was 0.028 µM.

system: CCRF-CEM; assay: Inhibition of CEM cell proliferation.; type: functional, cell-based; settings: Homo sapiens

Question: Which IC50 does the source give for `CN(C(=O)CO)c1ccccc1-c1cnc(Nc2ccc(-c3cnco3)c(Br)c2)o1` here?
Answer: The IC50 was 2.4 µM.

Question: `Cc1cccc(NC(=O)Nc2ccc(-c3cnco3)c(Cl)c2)c1` was tested. Which IC50 did it give?
Answer: Its IC50 is > 10 µM.

Question: Which IC50 does the source give for `COc1cc(Nc2ncc(-c3ccccc3N(C)C(=O)CN3CCOCC3)o2)ccc1-c1cocn1` here?
Answer: Its IC50 is 9.9 µM.

Question: How did the IC50 turn out when `COc1cc(Nc2ncc(-c3ccccc3)o2)ccc1-c1cnco1` was run?
Answer: The IC50 was > 10 µM.

Question: For `COc1cc(Nc2ncc(-c3ccccc3N(C)C(=O)CO)o2)ccc1-c1cnco1`, which IC50 is on record?
Answer: The IC50 was 1.4 µM.

Question: Which IC50 does the source give for `Cc1cc(Nc2ncc(-c3ccccc3N(C)C(=O)CN3CCOCC3)o2)ccc1-c1cnco1` here?
Answer: The IC50 was 3 µM.

Question: How did the IC50 turn out when `COc1cc(Nc2ncc(-c3ccccc3N(C)C(=O)CO)o2)ccc1-c1cocn1` was run?
Answer: The IC50 was 3.7 µM.

Question: Which IC50 does the source give for `CCc1cc(Nc2ncc(-c3ccccc3N(C)C(=O)CO)o2)ccc1-c1cnco1` here?
Answer: Its IC50 is 4.5 µM.

Question: With `CCc1cc(Nc2ncc(-c3ccccc3N(C)C(=O)CN3CCOCC3)o2)ccc1-c1cnco1` as the compound, how does the IC50 read?
Answer: Its IC50 is > 10 µM.

Question: For `CC(C)(C)NC(=O)C(=O)Nc1ccc(-c2cnco2)c(Cl)c1`, which IC50 is on record?
Answer: Its IC50 is > 10 µM.

Question: With `Cc1cccc(NC(=O)Nc2ccc(-c3cnco3)cc2)c1` as the compound, how does the IC50 read?
Answer: Its IC50 is > 10 µM.

Question: Which IC50 does the source give for `CNc1nc(Nc2ccc(-c3cnco3)c(OC)c2)nc(-c2ccccc2)n1` here?
Answer: The IC50 was 3.7 µM.

Question: For `Cc1cc(Nc2ncc(-c3ccccc3N(C)C(=O)CO)o2)ccc1-c1cnco1`, which IC50 is on record?
Answer: Its IC50 is 4.5 µM.

Question: Which IC50 does the source give for `COc1cc(Nc2ncc(-c3ccccc3)o2)ccc1-n1cncn1` here?
Answer: The IC50 was 8.3 µM.

Question: How did the IC50 turn out when `COc1cc(Nc2ncc(-c3ccccc3)o2)ccc1-c1cocn1` was run?
Answer: The IC50 was > 10 µM.

Question: How did the IC50 turn out when `CN(C(=O)CN1CCOCC1)c1ccccc1-c1cnc(Nc2ccc(-c3cnco3)c(Cl)c2)o1` was run?
Answer: The IC50 was 4.3 µM.

Question: Which IC50 does the source give for `COc1cc(NC(=O)C(=O)NC(C)(C)C)ccc1-c1cnco1` here?
Answer: Its IC50 is 2.3 µM.

Question: With `Clc1cc(Nc2ncc(-c3ccccc3)o2)ccc1-c1cnco1` as the compound, how does the IC50 read?
Answer: The IC50 was > 10 µM.

Question: Which IC50 does the source give for `CC(C)(C)NC(=O)C(=O)Nc1ccc(-c2cnco2)c(Br)c1` here?
Answer: Its IC50 is 5.5 µM.

Question: With `COc1cc(NC(=O)Nc2cccc(C)c2)ccc1-c1cnco1` as the compound, how does the IC50 read?
Answer: Its IC50 is 2.3 µM.

Question: For `CN(C(=O)CO)c1ccccc1-c1cnc(Nc2ccc(-c3cnco3)c(Cl)c2)o1`, which IC50 is on record?
Answer: The IC50 was 3.6 µM.

Question: `COc1cc2nc(-c3ccccc3)cc(O)c2cc1-c1cocn1` was tested. Which IC50 did it give?
Answer: The IC50 was 3.5 µM.

Question: Which IC50 does the source give for `CN(C(=O)CN1CCOCC1)c1ccccc1-c1cnc(Nc2ccc(-c3cnco3)c(Br)c2)o1` here?
Answer: Its IC50 is 3.2 µM.
